Molecular target: P-glycoprotein (Pgp; Abcb1a, MDR3) (Mus musculus, UniProt P21447)
Test: intrinsic protein fluorescence quenching
Format: binding

P-glycoprotein (Pgp; Abcb1a, MDR3), sequence (P21447 whole entry): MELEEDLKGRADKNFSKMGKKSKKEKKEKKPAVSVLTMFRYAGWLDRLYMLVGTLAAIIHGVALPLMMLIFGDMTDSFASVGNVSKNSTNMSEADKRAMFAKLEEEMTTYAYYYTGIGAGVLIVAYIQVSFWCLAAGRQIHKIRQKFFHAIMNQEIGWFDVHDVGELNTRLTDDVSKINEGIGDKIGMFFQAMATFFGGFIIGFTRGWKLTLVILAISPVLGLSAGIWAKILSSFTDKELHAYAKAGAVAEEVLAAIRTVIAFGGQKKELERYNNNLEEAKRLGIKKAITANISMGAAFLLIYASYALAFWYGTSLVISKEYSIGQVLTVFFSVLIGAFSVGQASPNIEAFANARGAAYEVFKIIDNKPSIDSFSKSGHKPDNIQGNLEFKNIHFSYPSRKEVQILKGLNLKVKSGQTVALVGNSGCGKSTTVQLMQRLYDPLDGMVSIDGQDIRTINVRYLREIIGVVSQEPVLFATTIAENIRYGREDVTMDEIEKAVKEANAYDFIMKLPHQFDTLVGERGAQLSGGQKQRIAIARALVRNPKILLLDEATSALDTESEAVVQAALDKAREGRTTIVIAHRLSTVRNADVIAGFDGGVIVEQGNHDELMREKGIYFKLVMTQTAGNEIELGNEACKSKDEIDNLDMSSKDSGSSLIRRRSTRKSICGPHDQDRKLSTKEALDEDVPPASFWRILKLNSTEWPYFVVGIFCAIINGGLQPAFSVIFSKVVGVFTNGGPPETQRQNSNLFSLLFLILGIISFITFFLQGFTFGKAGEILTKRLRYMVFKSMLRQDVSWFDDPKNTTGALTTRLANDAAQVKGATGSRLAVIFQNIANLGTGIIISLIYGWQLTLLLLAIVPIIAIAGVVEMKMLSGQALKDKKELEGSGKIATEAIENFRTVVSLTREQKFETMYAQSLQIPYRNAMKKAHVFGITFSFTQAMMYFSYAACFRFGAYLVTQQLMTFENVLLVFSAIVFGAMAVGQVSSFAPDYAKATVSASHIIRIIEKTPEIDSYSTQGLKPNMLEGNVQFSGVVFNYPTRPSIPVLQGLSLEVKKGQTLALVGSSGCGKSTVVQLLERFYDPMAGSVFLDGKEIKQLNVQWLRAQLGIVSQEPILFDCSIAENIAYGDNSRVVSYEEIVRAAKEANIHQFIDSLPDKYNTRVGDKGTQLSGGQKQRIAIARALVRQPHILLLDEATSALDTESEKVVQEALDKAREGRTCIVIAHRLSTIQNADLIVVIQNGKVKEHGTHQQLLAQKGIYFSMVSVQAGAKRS

Compound	Kd [µM]
COc1cccc2c1C(=O)c1c(O)c3c(c(O)c1C2=O)C[C@@](O)(C(=O)CO)C[C@@H]3O[C@H]1C[C@H](N)[C@H](O)[C@H](C)O1 [DOX, doxorubicin]	16.9 ± 1.3
COc1cccc2c1C(=O)c1c(O)c3c(c(O)c1C2=O)C[C@@](O)(C(C)=O)C[C@@H]3O[C@H]1C[C@H](N)[C@H](O)[C@H](C)O1 [DNR, daunorubicin]	16.3 ± 0.7

From PMC8262137 (Biochemical pharmacology, 2020)
